The source of these data is patent US20180252712A1, “RECEPTOR FOR NOROVIRUS AND USES THEREOF” (priority 2017, published 2018).

One series deals with MNoV^CW3. Put plainly: CRISPR screen in BV2-Cas9 cells, sgRNA enrichment after MNoV^CW3 infection. The conditions noted are these: for log2 fold enrichment after MNV infection relative to mock infected cells, CW3 MOI 0.05: MNoV^CW3, MOI 0.05, ten days post-infection; for log2 fold enrichment after MNV infection relative to mock infected cells, CW3 MOI 5: MNoV^CW3, MOI 5, ten days post-infection. Format: cell-based, murine norovirus. The procedure:
(§1) BV2 cells were transduced with pXPR_101 (Addgene plasmid 52962) and selected with blasticidin for eleven days. Cas9 activity was assessed by transducing parental BV2 or BV2-Cas9 cells with pXPR_011 (Addgene plasmid 59702), expresses eGFP and a sgRNA targeting eGFP at an MOI<1 [1]. Cells were transduced for 2 days and subsequently, selected for five days with puromycin and the frequency of eGFP expression was assessed by flow cytometry. The mouse ASIAGO sgRNA CRISPR library contains six independent genome wide pools which each pool containing a unique sgRNA targeting each of 20,077 mouse genes. Four ASIAGO pools were independently used to generate the BV2 library (Doench et al submitted). Each ASIAGO pool was delivered by lentiviral transduction of 5×10^7 BV2 cells at an MOI ˜0.2. This equates to 1×10^7 transduced cells, which is sufficient for the integration of each sgRNA 500 independent times. Two days post transduction, puromycin was added to the media and transduced cells were selected for five days. For each experimental condition, 1×10^7 BV2-Cas9 cells containing sgRNAs were seeded in a T175 tissue culture flask. Cells were infected with either MNoV^CW3 or MNoV^CR6 at MOls of 0.05 and 5. Mock infected cells were harvested 48 hrs after seeding and served as a reference for sgRNA enrichment analysis. Ten days post-infection genomic DNA was isolated from surviving cells using a Qiamp DNA mini kit according to manufacturer instructions (Qiagen).
(§2) Illumina sequencing and STARS analysis was performed as described previously (Doench et al, in press). Briefly, genomic DNA was aliquoted into multiple wells of a 96-well plate with up to 10 μg of DNA in 50 μl total volume. A PCR mastermix consisting of ExTaq DNA polymerase (Clontech), ExTaq buffer, dNTP, P5 stagger primer, and water was generated. 40 μl of PCR master mix, and 10 μl of a barcoded primer was added to each well containing 50 μl of DNA. Samples were PCR amplified as follows: 95° C. for 1 min., followed by 28 cycles of 94° C. for 30 sec., 52.5° C. for 30 sec., 72° C. for 30 sec. with a final 10 min. at 72° C. PCR product was purified with Agencourt AMPure XP SPRI beads according to the manufacture's protocol (Beckman Coluter). Samples were sequenced on an Illumina HiSeq 2000. Barcodes in the P7 primer were deconvuluted and the sgRNA sequence was mapped to a reference file of sgRNAs in the ASIAGO library. To normalize for different numbers of reads per condition, read counts per sgRNA were normalized to 10^7 total reads per sample. This normalized value was then log-2 transformed. sgRNAs that were not sequenced were arbitrarily assigned a read count of 1. sgRNA frequencies were then analyzed using STARS software, which is available at broadinstitute.org/rnai/public/software/index (Doench et al, in press). STARS computes a score for each gene of rank-ordered sgRNA hits that was above […] of total sequenced sgRNAs. A STAR score was only assigned to genes that scored above this threshold in at least two of four independent genome wide pools.

The subject of a further series is MNoV^CR6. Kind of series: CRISPR screen in BV2-Cas9 cells, sgRNA enrichment after MNoV^CR6 infection. The conditions noted are these: for log2 fold enrichment after MNV infection relative to mock infected cells, CR6 MOI 0.05: MNoV^CR6, MOI 0.05, ten days post-infection; for log2 fold enrichment after MNV infection relative to mock infected cells, CR6 MOI 5: MNoV^CR6, MOI 5, ten days post-infection. In kind it is cell-based, murine norovirus. The procedure:
as §1, §2

As for “GGAAGAGGATGAGCAGAGCA: sgRNA used in screen, no identical CD300 match marked (listed as DNA, chemistry not given here)”, in the series on MNoV^CW3, the “log2 fold enrichment after MNV infection relative to mock infected cells, CW3 MOI 0.05” value was −6.4 log2 fold enrichment and the “log2 fold enrichment after MNV infection relative to mock infected cells, CW3 MOI 5” value was −6.4 log2 fold enrichment. In addition, in the series with MNoV^CR6, the “log2 fold enrichment after MNV infection relative to mock infected cells, CR6 MOI 0.05” value is −6.4 log2 fold enrichment and the “log2 fold enrichment after MNV infection relative to mock infected cells, CR6 MOI 5” value was −6.4 log2 fold enrichment.
For “GGATCCAGTCACAGGTCCAG: sgRNA used in screen, matches CD300lf, CD300lh (listed as DNA, chemistry not given here)”, in the series with MNoV^CW3, the “log2 fold enrichment after MNV infection relative to mock infected cells, CW3 MOI 0.05” value is 0.0 log2 fold enrichment and the “log2 fold enrichment after MNV infection relative to mock infected cells, CW3 MOI 5” value turned out to be 12.5 log2 fold enrichment. In the series on MNoV^CR6, the “log2 fold enrichment after MNV infection relative to mock infected cells, CR6 MOI 0.05” value was found to be 0.0 log2 fold enrichment and the “log2 fold enrichment after MNV infection relative to mock infected cells, CR6 MOI 5” value is on record as 12.6 log2 fold enrichment.
For the substance “CTCCACGTAGGTACACCGCA: sgRNA used in screen, matches CD300lg (listed as DNA, chemistry not given here)”, in the series with MNoV^CW3, the “log2 fold enrichment after MNV infection relative to mock infected cells, CW3 MOI 0.05” value was −5.8 log2 fold enrichment and the “log2 fold enrichment after MNV infection relative to mock infected cells, CW3 MOI 5” value is −5.3 log2 fold enrichment. Besides, in the series on MNoV^CR6, the “log2 fold enrichment after MNV infection relative to mock infected cells, CR6 MOI 0.05” value is given as −5.6 log2 fold enrichment and the “log2 fold enrichment after MNV infection relative to mock infected cells, CR6 MOI 5” value is −5.8 log2 fold enrichment.
As for “GCTACTTACCTGGGAGGAAA: sgRNA used in screen, matches CD300lh (listed as DNA, chemistry not given here)”, in the series on MNoV^CW3, the “log2 fold enrichment after MNV infection relative to mock infected cells, CW3 MOI 0.05” value was −5.9 log2 fold enrichment and the “log2 fold enrichment after MNV infection relative to mock infected cells, CW3 MOI 5” value is −5.9 log2 fold enrichment. Moreover, in the series with MNoV^CR6, the “log2 fold enrichment after MNV infection relative to mock infected cells, CR6 MOI 0.05” value is −5.9 log2 fold enrichment and the “log2 fold enrichment after MNV infection relative to mock infected cells, CR6 MOI 5” value is reported as −5.9 log2 fold enrichment.
On to “TACCACGCCACAGGACTCCA: sgRNA used in screen, matches CD300lg (listed as DNA, chemistry not given here)”, for which, in the series on MNoV^CW3, the “log2 fold enrichment after MNV infection relative to mock infected cells, CW3 MOI 0.05” value is on record as 0.0 log2 fold enrichment and the “log2 fold enrichment after MNV infection relative to mock infected cells, CW3 MOI 5” value is given as −6.2 log2 fold enrichment. In the series with MNoV^CR6, the “log2 fold enrichment after MNV infection relative to mock infected cells, CR6 MOI 0.05” value is given as 0.0 log2 fold enrichment and the “log2 fold enrichment after MNV infection relative to mock infected cells, CR6 MOI 5” value is −6.2 log2 fold enrichment.
As to “CCTGTGATCCAGAAGAGAAA: sgRNA used in screen, matches CD300lf (listed as DNA, chemistry not given here)”, in the series on MNoV^CW3, the “log2 fold enrichment after MNV infection relative to mock infected cells, CW3 MOI 0.05” value was found to be 9.6 log2 fold enrichment and the “log2 fold enrichment after MNV infection relative to mock infected cells, CW3 MOI 5” value is 9.6 log2 fold enrichment. Also, in the series with MNoV^CR6, the “log2 fold enrichment after MNV infection relative to mock infected cells, CR6 MOI 0.05” value was 9.6 log2 fold enrichment and the “log2 fold enrichment after MNV infection relative to mock infected cells, CR6 MOI 5” value came out at 9.6 log2 fold enrichment.
For the substance “ACAGGTCCAGAGGAGGTGAG: sgRNA used in screen, matches CD300ld, CD300lf, CD300lh (listed as DNA, chemistry not given here)”, in the series on MNoV^CW3, the “log2 fold enrichment after MNV infection relative to mock infected cells, CW3 MOI 0.05” value was 0.0 log2 fold enrichment and the “log2 fold enrichment after MNV infection relative to mock infected cells, CW3 MOI 5” value was determined as 13.0 log2 fold enrichment. For the same substance, in the series with MNoV^CR6, the “log2 fold enrichment after MNV infection relative to mock infected cells, CR6 MOI 0.05” value stood at 0.0 log2 fold enrichment and the “log2 fold enrichment after MNV infection relative to mock infected cells, CR6 MOI 5” value was found to be 13.1 log2 fold enrichment.
As for “CGTAGCCAGACACAGAGCCA: sgRNA used in screen, matches CD300le (listed as DNA, chemistry not given here)”, in the series on MNoV^CW3, the “log2 fold enrichment after MNV infection relative to mock infected cells, CW3 MOI 0.05” value is on record as −5.9 log2 fold enrichment and the “log2 fold enrichment after MNV infection relative to mock infected cells, CW3 MOI 5” value is −5.5 log2 fold enrichment. Further, in the series on MNoV^CR6, the “log2 fold enrichment after MNV infection relative to mock infected cells, CR6 MOI 0.05” value is recorded as −5.8 log2 fold enrichment and the “log2 fold enrichment after MNV infection relative to mock infected cells, CR6 MOI 5” value is given as −5.9 log2 fold enrichment.
On to “GCAGCAAATCCAAATCTCAG: sgRNA used in screen, matches CD300lb (listed as DNA, chemistry not given here)”, for which, in the series on MNoV^CW3, the “log2 fold enrichment after MNV infection relative to mock infected cells, CW3 MOI 0.05” value was −5.8 log2 fold enrichment and the “log2 fold enrichment after MNV infection relative to mock infected cells, CW3 MOI 5” value is −5.8 log2 fold enrichment. In the series on MNoV^CR6, the “log2 fold enrichment after MNV infection relative to mock infected cells, CR6 MOI 0.05” value was −5.8 log2 fold enrichment and the “log2 fold enrichment after MNV infection relative to mock infected cells, CR6 MOI 5” value is −5.8 log2 fold enrichment.
For “TGTCACTGTGAAGATGGTGG: sgRNA used in screen, matches CD300lf (listed as DNA, chemistry not given here)”, in the series with MNoV^CW3, the “log2 fold enrichment after MNV infection relative to mock infected cells, CW3 MOI 0.05” value came out at 8.4 log2 fold enrichment and the “log2 fold enrichment after MNV infection relative to mock infected cells, CW3 MOI 5” value was 13.3^B log2 fold enrichment. In the series on MNoV^CR6, the “log2 fold enrichment after MNV infection relative to mock infected cells, CR6 MOI 0.05” value was determined as 7.2 log2 fold enrichment and the “log2 fold enrichment after MNV infection relative to mock infected cells, CR6 MOI 5” value is recorded as −1.9 log2 fold enrichment.
“CTACGCAAATCAGGACCAGG: sgRNA used in screen, matches CD300lg (listed as DNA, chemistry not given here)”: in the series on MNoV^CW3, the “log2 fold enrichment after MNV infection relative to mock infected cells, CW3 MOI 0.05” value was −6.4 log2 fold enrichment and the “log2 fold enrichment after MNV infection relative to mock infected cells, CW3 MOI 5” value is reported as −6.4 log2 fold enrichment. Moreover, in the series with MNoV^CR6, the “log2 fold enrichment after MNV infection relative to mock infected cells, CR6 MOI 0.05” value is listed as −6.4 log2 fold enrichment and the “log2 fold enrichment after MNV infection relative to mock infected cells, CR6 MOI 5” value is on record as −6.4 log2 fold enrichment.
With “GCCCTTGCTACTTACCTGGG: sgRNA used in screen, matches CD300ld (listed as DNA, chemistry not given here)”, in the series on MNoV^CW3, the “log2 fold enrichment after MNV infection relative to mock infected cells, CW3 MOI 0.05” value is 0.0 log2 fold enrichment and the “log2 fold enrichment after MNV infection relative to mock infected cells, CW3 MOI 5” value is −5.5 log2 fold enrichment. In addition, in the series with MNoV^CR6, the “log2 fold enrichment after MNV infection relative to mock infected cells, CR6 MOI 0.05” value is on record as 0.0 log2 fold enrichment and the “log2 fold enrichment after MNV infection relative to mock infected cells, CR6 MOI 5” value is reported as −5.5 log2 fold enrichment.
With “GAGTGTGTCATGTCGATATG: sgRNA used in screen, matches CD300la (listed as DNA, chemistry not given here)”, in the series on MNoV^CW3, the “log2 fold enrichment after MNV infection relative to mock infected cells, CW3 MOI 0.05” value is given as −6.2 log2 fold enrichment and the “log2 fold enrichment after MNV infection relative to mock infected cells, CW3 MOI 5” value was −6.2 log2 fold enrichment. Moreover, in the series on MNoV^CR6, the “log2 fold enrichment after MNV infection relative to mock infected cells, CR6 MOI 0.05” value is −6.2 log2 fold enrichment and the “log2 fold enrichment after MNV infection relative to mock infected cells, CR6 MOI 5” value is −6.2 log2 fold enrichment.
As to “ACGGAAGTGAGAAAGAAAAG: sgRNA used in screen, matches CD300le (listed as DNA, chemistry not given here)”, in the series with MNoV^CW3, the “log2 fold enrichment after MNV infection relative to mock infected cells, CW3 MOI 0.05” value is −6.6 log2 fold enrichment and the “log2 fold enrichment after MNV infection relative to mock infected cells, CW3 MOI 5” value is recorded as −6.6 log2 fold enrichment. In the series with MNoV^CR6, the “log2 fold enrichment after MNV infection relative to mock infected cells, CR6 MOI 0.05” value was −6.6 log2 fold enrichment and the “log2 fold enrichment after MNV infection relative to mock infected cells, CR6 MOI 5” value was −6.6 log2 fold enrichment.
